Here are results for 18 compounds from ChEMBL document CHEMBL3046352, “Synthesis, anti-HSV-1, and cytotoxic activities of some new pyrazole- and isoxazole-based heterocycles” (Med Chem Res, 2011).

The subject of data set [1] is Human alphaherpesvirus 1. As to the kind of experiment: Antiviral activity against Human herpesvirus 1 infected Vero cells assessed as reduction in viral plaque after 66 hr relative to control. The data set is classed as functional. Also noted: concentration or dose not given beside the values.
Data set [2] can be described thus: Cytotoxicity against Chlorocebus aethiops (African green monkey) Vero cells assessed as concentration required for 50% loss of monolayer around viral plaque after 66 hr. It counts as cell-based. The conditions noted are these: chlorocebus sabaeus, read-out: Activity.
Data set [3] concerns Human alphaherpesvirus 1. As to the kind of experiment: Antiviral activity against Human herpesvirus 1 infected Vero cells after 66 hr. The data set is classed as functional.

Converted amounts (≈) assume the structure as drawn. The source made the active and inactive calls. The rule behind the calls is not given here.

On to `NNC(=O)c1cc(-c2ccc(Cl)cc2)on1`, for which, in the data set on Human alphaherpesvirus 1 [1], the Activity was determined as 43%. The CC50 at 66 h in data set [2] was determined as 10 µg/mL (≈ 42.1 µM). The MAC in the data set on Human alphaherpesvirus 1 [3] is 0.1 mg/mL.
On to `O=C(N/N=C1/S/C(=C\c2ccc(F)cc2)C(=O)N1c1ccccc1)c1cc(-c2ccc(Cl)cc2)n(-c2ccccc2)n1`, for which the result in the data set with Human alphaherpesvirus 1 [1] was inactive. The CC50 at 66 h in data set [2] was found to be 30 µg/mL (≈ 50.5 µM).
Take `CC(=N/NC(=O)c1cc(-c2ccc(Cl)cc2)n(-c2ccccc2)n1)/C(Cl)=N\Nc1ccc(F)cc1`: the Activity with Human alphaherpesvirus 1 [1] came to 69%. Moreover, the CC50 at 66 h in data set [2] stood at 20 µg/mL (≈ 39.3 µM). This compound yielded an MAC in the data set with Human alphaherpesvirus 1 [3] of 0.1 mg/mL.
As to `O=C(NNC(=S)Nc1ccccc1)c1cc(-c2ccc(Cl)cc2)on1`, in the data set on Human alphaherpesvirus 1 [1], the Activity was 19%. Besides, in data set [2], the CC50 at 66 h was found to be 20 µg/mL (≈ 53.6 µM). The compound further gave an MAC in the data set with Human alphaherpesvirus 1 [3] of 0.1 mg/mL.
In the same order, the values of `NNC(=O)c1cc(-c2ccc(Cl)cc2)n(-c2ccccc2)n1` are 65%, 20 µg/mL (≈ 63.9 µM) and 0.1 mg/mL.
On to `Clc1ccc(-c2cc(-c3nnc(Nc4ccccc4)s3)nn2-c2ccccc2)cc1`, for which, in the data set on Human alphaherpesvirus 1 [1], the outcome was inactive. In addition, the CC50 at 66 h in data set [2] came out at 30 µg/mL (≈ 69.8 µM).
For `O=C(NNC(=S)Nc1ccccc1)c1cc(-c2ccc(Cl)cc2)n(-c2ccccc2)n1`, in that order: “inactive” and 20 µg/mL (≈ 44.6 µM).
With `O=C(N/N=c1\scc(-c2ccc(Cl)cc2)n1-c1ccccc1)c1cc(-c2ccc(Cl)cc2)n(-c2ccccc2)n1`, the result in the data set on Human alphaherpesvirus 1 [1] was inactive. In data set [2], the CC50 at 66 h turned out to be 20 µg/mL (≈ 34.3 µM).
In the same order, the values of `CC1=NN(C(=O)c2cc(-c3ccc(Cl)cc3)n(-c3ccccc3)n2)C(=O)/C1=N/Nc1ccc(F)cc1` are “inactive” and 20 µg/mL (≈ 39.9 µM).
For `CC1=NN(C(=O)c2cc(-c3ccc(Cl)cc3)on2)C(=O)/C1=N/Nc1ccc(F)cc1`, in that order: “inactive” and 20 µg/mL (≈ 47 µM).
`Clc1ccc(-c2cc(-c3nnc(Nc4ccccc4)s3)no2)cc1`: in the data set with Human alphaherpesvirus 1 [1], the result was inactive. The CC50 at 66 h in data set [2] is 20 µg/mL (≈ 56.4 µM).
Consider `CC(=N/NC(=O)c1cc(-c2ccc(Cl)cc2)on1)/C(Cl)=N\Nc1ccc(F)cc1`, for which the Activity in the data set with Human alphaherpesvirus 1 [1] is listed as 51%. Besides, the CC50 at 66 h in data set [2] came out at 20 µg/mL (≈ 46.1 µM). In the data set on Human alphaherpesvirus 1 [3], this compound showed an MAC of 0.1 mg/mL.
For `O=C(N/N=C/c1ccc(F)cc1)c1cc(-c2ccc(Cl)cc2)n(-c2ccccc2)n1`, in that order: 67%, 20 µg/mL (≈ 47.7 µM) and 0.1 mg/mL.
On to `O=C(N/N=c1\scc(-c2ccc(Cl)cc2)n1-c1ccccc1)c1cc(-c2ccc(Cl)cc2)on1`, for which, in the data set on Human alphaherpesvirus 1 [1], the result was inactive. Further, the CC50 at 66 h in data set [2] was 20 µg/mL (≈ 39.4 µM).
In the same order, the values of `O=C(N/N=C/c1ccc(F)cc1)c1cc(-c2ccc(Cl)cc2)on1` are 56% and 10 µg/mL (≈ 29.1 µM).
With `C[C@@]1(CO)[C@H](O)CC[C@@]2(C)[C@H]1CC[C@H]1C[C@@H]3C[C@@]12CC[C@]3(O)CO` [APHIDICOLIN], in the data set on Human alphaherpesvirus 1 [1], the Activity is 100%. In data set [2], the CC50 at 66 h was 10 µg/mL (≈ 29.5 µM). In the data set on Human alphaherpesvirus 1 [3], this compound showed an MAC of 0.005 mg/mL.
In the case of `O=C(NN1C(=O)c2ccccc2C1=O)c1cc(-c2ccc(Cl)cc2)on1`, the outcome with Human alphaherpesvirus 1 [1] was inactive. Moreover, the CC50 at 66 h in data set [2] was 10 µg/mL (≈ 27.2 µM). Further, the MAC in the data set on Human alphaherpesvirus 1 [3] is 0.1 mg/mL.
With `O=C(N/N=C1/S/C(=C\c2ccc(F)cc2)C(=O)N1c1ccccc1)c1cc(-c2ccc(Cl)cc2)on1`, the result with Human alphaherpesvirus 1 [1] was inactive. In addition, in data set [2], the CC50 at 66 h is 20 µg/mL (≈ 38.5 µM).
